Measurements: patent US12404261B2, “Compounds and compositions for treating conditions associated with cGAS” (Novartis AG, priority 2020, dated 2025)

molecular target: human truncated cGAS enzyme (147-522 human cGAS) (Homo sapiens (Human), UniProt Q8N884); assay: Quantification of cGAS protein inhibition (cGAMP formation measured by LC-MS/MS); type: biochemical; conditions: reported for the potential mixture in solution of co-existing tautomers and/or racemates
Method: A reagent buffer was prepared in filtered and autoclaved water according to the following: • 50 mM Tris-buffer pH 7.5 (1 M Tris-buffer pH 7.5, Invitrogen, Cat. No. 15567-027); • 50 mM NaCl (5 M NaCl, Sodium Chloride Solution, Sigma, 59222C-); • 5 mM MgCl2 (1 M MgCl2, Sigma, M1028); • 0.1 mM ZnCl2 (Zinc Chloride [7646-85-7], powder, Cell Culture Tested, Sigma, Z-0152); and • 0.001% Tween 20 (TWEEN 20, Sigma Aldrich, P1379-).
A buffer for the cGAS enzyme was prepared in filtered and autoclaved water according to the following: • 50 mM Tris-buffer pH 7.5; • 5 mM MgCl2; and • 0.001% Tween 20.
Compounds were dispensed to a […]. The human truncated cGAS enzyme (4.2 mg/mL 147-522 human cGAS, MW 43,909 g/mol) was stored in 50 mM Tris, 500 mM NaCl, 5% (v/v) glycerol at pH 8 and diluted in the cGAS buffer enzyme shortly before use. The enzyme solution was transferred into the reagent buffer to give a final concentration of 30 nM. The reaction was started by mixing the enzyme with ISD (a 45 bp double stranded DNA, MW 27,670 g/mol, 5 mM), GTP and ATP to a final concentration of 5 μM, 0.5 mM and 0.5 mM respectively in a final volume of 10 μl. The reaction plates were then centrifuged at 1000 rpm for 1 minute and incubated at room temperature for 1 h. After 1 h of incubation, [^5Ns]-2′3′-cGAMP to a final concentration of 200 nM and 30 μL of 100% acetonitrile/0.175% of TFA were added to the reaction mixture. The plates were centrifuged at 1000 rpm for 1 minute before being sealed for 3 seconds at 170° C. using a ThermoScientific sealer (ALPS™ 50V) and an aluminum sealing cover (Pierce Seal, 4titude, Product Code: 4TI-0531).
The concentration of cGAMP was measured on a LC-MS/MS system consisting of a THERMO Dionex Ultimate LC system with a high pressure pump, an autosampler, a column heating compartment (Reinach, Switzerland) and a SCIEX Triple Quad 5500 (Framingham, MA, USA) mass spectrometer for detection. The sample plates were centrifuged for 10 minutes at 2000 rpm. Up to three plates were placed in the autosampler for injection. An aliquot of 10 μL of each sample was injected on an XBridge BEH Amide 3.5 μm, 2.1×50 mm column (P/N 186004859) with an XBridge BEH Amide 5 μm 2.1×5 mm VanGuard Cartridge (P/N 186007760) pre-column (both WATERS, MA, USA) held at 40° C. An isocratic flow of 1.0 mL/min solvent (60% ACN, 8 mM ammonium acetate, 5 mM ammonium hydroxide, 0.04% acetic acid) was applied and sprayed into the ion source of the mass spectrometers. The MS parameters were optimized based on the properties of the compounds to be detected and run in positive multi-reaction mode (MRM) based on the mass transitions. LC and MS parameters were also optimized to allow for a sample-to-sample measuring time of approximately 75 sec and a run time of 8 hours per 384-well plate. All data were analyzed with Excel; and the dose response curves were generated using the auto fitting function of XLfit. The IC50 was determined by plotting the cGAMP concentration ratio (cGAMP divided by the internal standard [^15Ns]-2′3′-cGAMP) versus the concentration of compound.

Sequence of human truncated cGAS enzyme (147-522 human cGAS) (Q8N884 147-522): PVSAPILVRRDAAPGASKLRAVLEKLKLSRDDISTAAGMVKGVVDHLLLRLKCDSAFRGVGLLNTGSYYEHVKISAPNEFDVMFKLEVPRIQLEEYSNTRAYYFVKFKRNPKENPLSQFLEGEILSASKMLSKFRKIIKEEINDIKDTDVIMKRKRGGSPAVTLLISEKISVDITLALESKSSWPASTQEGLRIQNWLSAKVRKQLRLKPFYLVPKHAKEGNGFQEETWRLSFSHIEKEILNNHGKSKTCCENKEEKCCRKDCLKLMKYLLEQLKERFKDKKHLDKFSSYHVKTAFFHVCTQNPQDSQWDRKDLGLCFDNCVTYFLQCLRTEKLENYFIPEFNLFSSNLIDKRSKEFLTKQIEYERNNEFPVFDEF

In order of rising IC50:
1. COc1cc2c(-n3ccnc3)c(-c3nnc(C(F)(F)F)[nH]3)[nH]c2cc1Cl [Example 107, 6-chloro-3-(1H-imidazol-1-yl)-5-methoxy-2-(5-(trifluoromethyl)-4H-1,2,4-triazol-3-yl)-1H-indole]  79 nM
2. COc1cc2c(-n3ccnc3)c(-c3nnc(C(=O)N(C)C)[nH]3)n(C)c2cc1Cl [Example 116, 5-(6-chloro-3-(1H-imidazol-1-yl)-5-methoxy-1-methyl-1H-indol-2-yl)-N,N-dimethyl-4H-1,2,4-triazole-3-carboxamide]  103 nM
3. COc1cc2c(-n3ccnc3)c(-c3nnc(C(C)=O)[nH]3)n(C)c2c(F)c1Cl [Example 102, 1-(5-(6-chloro-7-fluoro-3-(1H-imidazol-1-yl)-5-methoxy-1-methyl-1H-indol-2-yl)-4H-1,2,4-triazol-3-yl)ethan-1-one]  108 nM
4. COc1cc2c(-n3ccnc3)c(-c3nnc(C(=O)N(C)C)[nH]3)n(C)c2c(C#N)c1Cl [Example 103, 5-(6-chloro-7-cyano-3-(1H-imidazol-1-yl)-5-methoxy-1-methyl-1H-indol-2-yl)-N,N-dimethyl-4H-1,2,4-triazole-3-carboxamide]  171 nM
5. COc1cc2c(-n3ccnc3)c(-c3nnc(C(C)N4CC5(COC5)C4)[nH]3)n(C)c2c(F)c1Cl (centres unmarked) [Example 130, 6-(1-(5-(6-chloro-7-fluoro-3-(1H-imidazol-1-yl)-5-methoxy-1-methyl-1H-indol-2-yl)-4H-1,2,4-triazol-3-yl)ethyl)-2-oxa-6-azaspiro[3.3]heptane]  268 nM
6. Cn1c(-c2nnc(C(F)(F)F)[nH]2)c(-n2ccnc2)c2cc(Cl)c(Cl)cc21 [Example 108, 5,6-dichloro-3-(1H-imidazol-1-yl)-1-methyl-2-(5-(trifluoromethyl)-4H-1,2,4-triazol-3-yl)-1H-indole]  282 nM
7. COc1cc2c(-n3ccnc3)c(-c3nnc(CCO)[nH]3)n(C)c2c(C#N)c1Cl [Example 118, 6-chloro-2-(5-(2-hydroxyethyl)-4H-1,2,4-triazol-3-yl)-3-(1H-imidazol-1-yl)-5-methoxy-1-methyl-1H-indole-7-carbonitrile]  291 nM
8. COCCNC(C)c1nnc(-c2c(-n3ccnc3)c3cc(OC)c(Cl)c(F)c3n2C)[nH]1 (centres unmarked) [Example 129, 1-(5-(6-chloro-7-fluoro-3-(1H-imidazol-1-yl)-5-methoxy-1-methyl-1H-indol-2-yl)-4H-1,2,4-triazol-3-yl)-N-(2-methoxyethyl)ethan-1-amine]  757 nM

same assay, conditions: reported for the potential mixture of co-existing tautomers and/or racemates

In order of rising IC50:
1. COc1cc2c(-c3cn[nH]c3)c(-c3nnc(F)[nH]3)n(C)c2c(F)c1Cl [Example 58, 6-chloro-7-fluoro-2-(5-fluoro-4H-1,2,4-triazol-3-yl)-5-methoxy-1-methyl-3-(1H-pyrazol-4-yl)-1H-indole]  30 nM
2. COc1cc2c(-c3cn[nH]c3)c(-c3nnc(C(C)(F)F)[nH]3)[nH]c2c(F)c1Cl [Example 67, 6-chloro-2-(5-(1,1-difluoroethyl)-4H-1,2,4-triazol-3-yl)-7-fluoro-5-methoxy-3-(1H-pyrazol-4-yl)-1H-indole]  30 nM
3. COCC(F)(F)c1nnc(-c2[nH]c3c(Cl)c(Cl)ccc3c2-c2cn[nH]c2)[nH]1 [Example 9, 6,7-dichloro-2-(5-(1,1-difluoro-2-methoxyethyl)-4H-1,2,4-triazol-3-yl)-3-(1H-pyrazol-4-yl)-1H-indole]  30 nM
4. CCOC(=O)c1nnc(-c2[nH]c3c(Cl)c(Cl)ccc3c2-c2cn[nH]c2)[nH]1 [Example 21, ethyl 5-(6,7-dichloro-3-(1H-pyrazol-4-yl)-1H-indol-2-yl)-4H-1,2,4-triazole-3-carboxylate]  30 nM
5. COc1cc2c(-c3cn[nH]c3)c(-c3nnc(C(F)(F)F)[nH]3)[nH]c2c(F)c1Cl [Example 4, 6-chloro-7-fluoro-5-methoxy-3-(1H-pyrazol-4-yl)-2-(5-(trifluoromethyl)-4H-1,2,4-triazol-3-yl)-1H-indole]  33 nM
6. COc1cc2c(-n3ccnc3)c(-c3nnc(C(O)C(F)(F)F)[nH]3)n(C)c2c(F)c1Cl (centres unmarked) [Example 98, 1-(5-(6-chloro-7-fluoro-3-(1H-imidazol-1-yl)-5-methoxy-1-methyl-1H-indol-2-yl)-4H-1,2,4-triazol-3-yl)-2,2,2-trifluoroethan-1-ol]  37 nM
7. Fc1c(Cl)ccc2c(-c3cn[nH]c3)c(-c3nnc(C(F)(F)F)[nH]3)[nH]c12 [Example 16, 6-chloro-7-fluoro-3-(1H-pyrazol-4-yl)-2-(5-(trifluoromethyl)-4H-1,2,4-triazol-3-yl)-1H-indole]  44 nM
8. COc1cc2c(-c3cn[nH]c3)c(-c3nnc(C(N)=O)[nH]3)[nH]c2cc1Cl [Example 31, 5-(6-chloro-5-methoxy-3-(1H-pyrazol-4-yl)-1H-indol-2-yl)-4H-1,2,4-triazole-3-carboxamide]  49 nM
9. COc1cc2c(-n3ccnc3)c(-c3nnc(C(=O)N4CCCC(O)C4)[nH]3)n(C)c2c(F)c1Cl (centres unmarked) [Example 45, (5-(6-chloro-7-fluoro-3-(1H-imidazol-1-yl)-5-methoxy-1-methyl-1H-indol-2-yl)-4H-1,2,4-triazol-3-yl)(3-hydroxypiperidin-1-yl)methanone]  56 nM
10. COc1cc2c(-n3ccnc3)c(-c3n[nH]c(C(CO)OC)n3)n(C)c2c(F)c1Cl (centres unmarked) [Example 93, 2-(3-(6-chloro-7-fluoro-3-(1H-imidazol-1-yl)-5-methoxy-1-methyl-1H-indol-2-yl)-1H-1,2,4-triazol-5-yl)-2-methoxyethan-1-ol]  60 nM
11. COc1cc2c(-n3ccnc3)c(-c3nnc(N4CC[C@@H](O)C4)[nH]3)n(C)c2c(F)c1Cl [Example 91, (R)-1-(5-(6-chloro-7-fluoro-3-(1H-imidazol-1-yl)-5-methoxy-1-methyl-1H-indol-2-yl)-4H-1,2,4-triazol-3-yl)pyrrolidin-3-ol]  109 nM
12. Cn1c(-c2nnc(C(F)(F)F)[nH]2)c(-c2cn[nH]c2)c2cc(Cl)c(Cl)cc21 [Example 23, 5,6-dichloro-1-methyl-3-(1H-pyrazol-4-yl)-2-(5-(trifluoromethyl)-4H-1,2,4-triazol-3-yl)-1H-indole]  112 nM
13. COc1cc2c(-n3ccnc3)c(-c3nnc(C(F)(F)F)[nH]3)n(C)c2c(F)c1Cl [Example 47, 6-chloro-7-fluoro-3-(1H-imidazol-1-yl)-5-methoxy-1-methyl-2-(5-(trifluoromethyl)-4H-1,2,4-triazol-3-yl)-1H-indole]  121 nM
14. N#Cc1c(Cl)ccc2c(-c3cn[nH]c3)c(-c3nnc(C(F)(F)F)[nH]3)[nH]c12 [Example 19, 6-chloro-3-(1H-pyrazol-4-yl)-2-(5-(trifluoromethyl)-4H-1,2,4-triazol-3-yl)-1H-indole-7-carbonitrile]  150 nM
15. N#Cc1cc2c(-c3cn[nH]c3)c(-c3nnc(C(F)(F)F)[nH]3)[nH]c2c(F)c1Cl [Example 6, 6-chloro-7-fluoro-3-(1H-pyrazol-4-yl)-2-(5-(trifluoromethyl)-4H-1,2,4-triazol-3-yl)-1H-indole-5-carbonitrile]  152 nM
16. COc1cc2c(-n3ccnc3)c(-c3nnc(F)[nH]3)n(C)c2c(F)c1Cl [Example 86, 6-chloro-7-fluoro-2-(5-fluoro-4H-1,2,4-triazol-3-yl)-3-(1H-imidazol-1-yl)-5-methoxy-1-methyl-1H-indole]  264 nM
17. OCc1nnc(-c2[nH]c3c(Cl)c(Cl)ccc3c2-c2cn[nH]c2)[nH]1 [Example 36, (5-(6,7-Dichloro-3-(1H-pyrazol-4-yl)-1H-indol-2-yl)-4H-1,2,4-triazol-3-yl)methanol]  342 nM
18. COCCn1c(-c2nnc(C(F)(F)F)[nH]2)c(-c2cn[nH]c2)c2cc(OC)c(Cl)cc21 [Example 26, 6-chloro-5-methoxy-1-(2-methoxyethyl)-3-(1H-pyrazol-4-yl)-2-(5-(trifluoromethyl)-4H-1,2,4-triazol-3-yl)-1H-indole]  1810 nM
